According to patent US10111877B2, “Modulators of androgen synthesis” (Tangent Reprofiling Limited, priority 2012, dated 2018):
Where two headings read alike, the source gives them in different places.

Tests used:
HSD10 = target: T1, HSD10 (Homo sapiens, UniProt Q99714); test: HSD10 Enzyme Inhibition Assay; assay type: biochemical; conditions: 50 μM drug
T1 construct: endogenous in cells; host or cells: PC3 cells
T1 sequence (Q99714 1-261): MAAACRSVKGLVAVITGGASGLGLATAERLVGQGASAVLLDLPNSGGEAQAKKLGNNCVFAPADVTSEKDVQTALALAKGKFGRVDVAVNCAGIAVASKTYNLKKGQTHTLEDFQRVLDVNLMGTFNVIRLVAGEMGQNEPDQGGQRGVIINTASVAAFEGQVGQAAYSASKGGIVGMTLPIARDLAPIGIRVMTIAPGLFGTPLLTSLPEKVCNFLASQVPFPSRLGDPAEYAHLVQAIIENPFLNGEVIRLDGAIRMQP
Procedure: An HSD10 inhibition assay was performed to determine the effect of several anti-psychotics on enzyme activity.
(§1) PC3 cells are from a cell line derived from a hormone refractory prostate cancer and are known to overexpress HSD10. […] Cells line tests were carried out in presence and absence of testosterone for comparison. After incubation in the drug treatment for 96 hours at 37° C., 5% CO2, the supernatant was removed from all wells of cells, and cells washed with 200 μL PBS.
(§2) After removal of the PBS, cell number was determined using a lysed cell LDH assay (CytoTox 96 Non-radioactive cytotoxicity assay (LDH Assay); Promega, Co., Madison Wis.). Cells were lysed with 0.9% Triton-X in PBS for 2 hours at 37° C., 5% CO2 and 50 μL of this cell lysate was transferred to a fresh 96 well plate. About 50 μL of CytoTox 96 assay reagent was added to the transferred cell lysate and this mixture was incubated at room temperature in the dark for 20 minutes. After the addition of 50 μL stop reagent, the optical absorbance was determined for each incubated mixture at 492 nm. […] The mean and standard error was calculated from at least 3 wells.

PC3 cells = test: Cell growth inhibition, lysed cell LDH assay, prostate cancer cell line; assay type: cell-based
Procedure: To determine whether Risperidone could be effective in inhibiting growth of cancer cells overexpressing HSD10, a lysed cell LDH assay was conducted using cells from a PC3 cell line.
as §1, §2
To determine the optimal concentration of Risperidone and CLA necessary to inhibit cell growth, a lysed cell LDH assay was conducted using various concentration of Risperidone and CLA. PC3 cells were cultured and a lysed cell LDH assay was conducted as described above, except that the various drug treatments evaluated contained either 0 μM, 12.5 μM, 25 μM, or 50 μM Risperidone in combination with 0 μM, 6.25 μM, 12.5 μM, 25 μM, 50 μM, or 100 μM CLA (see Table 3).
as §2, with “PBS from the cell cultures described above,” for “PBS,”, “assay.” for “assay (CytoTox 96 Non-radioactive cytotoxicity assay (LDH Assay); Promega, Co., Madison Wis.).”

A549 cells = test: Cell growth inhibition, lysed cell LDH assay, lung cancer cell line; assay type: cell-based
Procedure: To determine whether Risperidone alone, or in combination with CLA could inhibit cell growth of cells taken from a lung cancer cell line overexpressing HSD10, A549 cells were seeded at a density of 2,000 cells per well in a 96 well plate, and incubated at 37° C., 5% CO2 for 48 hours in standard growth media (DMEM nutrient media, 10% Fetal Calf Serum, 2 mM L-Glutamine). The media was then removed by pipette and replaced with the appropriate drug treatment as follows: 50 μM Risperidone in A459 treatment media (DMEM nutrient media, 125 uM fatty acid free BSA, 2 mM L-Glutamine); 50 μM CLA in A459 treatment media; 50 μM Risperidone and 50 μM CLA in A459 treatment media; 50 μM Risperidone and 1 μM Testosterone in A459 treatment media; 50 μM Risperidone, 50 μM CLA, and 1 μM Testosterone in A459 treatment media. After incubation in the drug treatment for 96 hours at 37° C., 5% CO2, the supernatant was removed from all wells of cells, and cells washed with 200 μL PBS.
After removal of the PBS from the cell cultures described above, cell number was determined using a lysed cell LDH assay. Cells were lysed with 0.9% Triton-X in PBS for 2 hours at 37° C., 5% CO2 and 50 μL of this cell lysate was transferred to a fresh 96 well plate. About 50 μL of CytoTox 96 assay reagent was added to the transferred cell lysate and this mixture was incubated at room temperature in the dark for 20 minutes. After the addition of 50 μL stop reagent, the optical absorbance was determined for each incubated mixture at 492 nm. The percentage cell number was calculated by normalizing the experimental counts, where 100% is set to cells receiving no drug treatment, and 0% is set to readings from wells containing no cells. The mean and standard error was calculated from at least 3 wells.

MCF7 cells = test: Cell growth inhibition, lysed cell LDH assay, breast cancer cell line; assay type: cell-based
Procedure: (§3) To determine whether Risperidone could be effective in inhibiting growth of cancer cells overexpressing HSD10, a lysed cell LDH assay was conducted using cells taken from a prostate cancer cell line, a lung cancer cell line, a breast cancer cell line, an ovarian cancer cell line, each of which was known to overexpress HSD10, and a non-cancerous cell line.
(§4) After incubation in the drug treatment for 96 hours at 37° C., 5% CO2, the supernatant was removed from all wells of cells, and cells washed with 200 μL PBS.
as §2, with “PBS from the cell cultures described above,” for “PBS,”, “assay.” for “assay (CytoTox 96 Non-radioactive cytotoxicity assay (LDH Assay); Promega, Co., Madison Wis.).”

OVCAR-3 cells = test: Cell growth inhibition, lysed cell LDH assay, ovarian cancer cell line; assay type: cell-based
Procedure: as §3, §4
as §2, with “PBS from the cell cultures described above,” for “PBS,”, “assay.” for “assay (CytoTox 96 Non-radioactive cytotoxicity assay (LDH Assay); Promega, Co., Madison Wis.).”

VERO cells = test: Cell growth inhibition, lysed cell LDH assay, non-cancerous cell line; assay type: cell-based
Procedure: as §3, §4
as §2, with “PBS from the cell cultures described above,” for “PBS,”, “assay.” for “assay (CytoTox 96 Non-radioactive cytotoxicity assay (LDH Assay); Promega, Co., Madison Wis.).”

BxPC-3 cells = test: Resazurin-based cell viability assay, pancreatic cancer cell line; conditions: Homo sapiens, BXPC-3, read-out: growth inhibition of Bx-PC3 cells
Procedure: To determine whether Risperidone alone, or in combination with CLA could inhibit cell growth of cells taken from a pancreatic cancer cell line overexpressing HSD10, a resazurin-based cell viability assay was conducted on Bx-PC3 cells.
BxPC-3 cells are from a cell line derived from a human pancreatic adenocarcinoma and are known to overexpress HSD10. BxPC-3 cells were seeded at a density of 4,000 cells per well in a 384 well plate, and incubated at 37° C., 5% CO2 for 24 hours in standard growth media (RPMI nutrient media, 5% heat-inactivated Fetal Calf Serum, 2 mM L-Glutamine). The media was then removed by pipette and replaced with 50 μL BxPC-3 treatment media comprising 125 μM fatty acid-free BSA, 2 mM L-Glutamine and one of the following drug treatments: 0.1 μM, 2 μM, or 50 μM Risperidone; 0.1 μM, 2 μM, or 50 μM CLA; or 0.1 μM, 2 μM, or 50 μM of Risperidone and CLA (in equimolar amounts). After incubation in the drug treatment for 72 hours at 37° C., 5% CO2, viable cell number was determined using a resazurin-based cell viability assay (PRESTOBLUE®; Invitrogen, Carlsbad, Calif.). To each well, 7 μL of PRESTOBLUE® reagent was added and the plates incubated for 60 minutes at 37° C., 5% CO2. After incubation, the fluorescence intensity of each well was determined using a microplate reader by excitation and 570 nm and recording emission at 600 nm. The percentage of viable cell number was calculated by normalizing the experimental fluorescence intensity, where 100% is set to cells receiving no drug treatment (cells metabolizing at optimal rate), and 0% is set to readings from cells treated with Paclitaxel (cells not metabolizing at all due to their destruction by anti-cancer drug). A value under 50% could be considered a useful indication of potential efficacy.

PC-3M-luc cells = test: Orthotopic prostate tumor mouse xenograft model; conditions: single drug
Procedure: Immunodeficeint male mice (athymic nude mice) were acclimated to the laboratory for at least one week prior to implantation of tumor. PC-3M-luc cells obtained directly from in vitro culture were then injected into the prostate on Day 0. Animals were divided into six groups of 12 mice each. Primary tumor size and metastases were assessed by bioluminescence measurements on day 6, 13, 20, 27, 34, and 40. On day 7 a five week treatment regime was initiated. Both individual drug and high and low dose combination were examined by administering the drugs twice daily on an individual body weight basis using a dose escalation protocol (Table 7). If tumors grew above a pre-determined level, or mice lost more than 10% of bodyweight, they were culled. The primary tumor was excised, weighed and measured. Individual organs were imaged to assess metastatic burden.

[1] = 50 μM Risperidone and/or 50 μM CLA, 1 μM Testosterone (T) where added, 96 hours

## Cc1nc2n(c(=O)c1CCN1CCC(c3noc4cc(F)ccc34)CC1)CCCC2 [Risperidone, 3-[2-[4-(6-fluoro-1,2-benzoxazol-3-yl)piperidin-1-yl]ethyl]-2-methyl-6,7,8,9-tetrahydropyrido[1,2-a]pyrimidin-4-one]
HSD10
  Oxidative Activity Rate: 1.0 µM/min
  Reductive Activity Rate: 3.3 µM/min
HSD10; read-out: Oxidative Activity Drug Inhibition
  inhibition at 50 µM: 88%
HSD10; read-out: Reductive Activity Drug Inhibition
  inhibition at 50 µM: 63%
PC3 cells; 12.5 μM Risperidone, 0 μM CLA (Table 4)
  Percentage of Lysed Cells: 81 ± 3.6%
PC3 cells; 12.5 μM of each drug, 96 hours, 100% = no drug treatment (Table 3)
  Percentage of Lysed Cells: 102 ± 5.4%
PC3 cells; 25 μM Risperidone, 0 μM CLA (Table 4)
  Percentage of Lysed Cells: 73 ± 2.2%
PC3 cells; 25 μM of each drug, 96 hours, 100% = no drug treatment (Table 3)
  Percentage of Lysed Cells: 93 ± 0.51%
PC3 cells; 50 μM Risperidone, 0 μM CLA (Table 4)
  Percentage of Lysed Cells: 79 ± 0.7%
PC3 cells; 50 μM of each drug, 96 hours, 100% = no drug treatment (Table 3)
  Percentage of Lysed Cells: 52 ± 0.22%
PC3 cells; Homo sapiens, PC-3, 50 μM
  inhibition at 50 µM: ~50%
PC3 cells; PC3, 50 μM Risperidone and/or 50 μM CLA, 1 μM Testosterone (T) where added, 96 hours (Table 5)
  Percentage of Lysed Cells: 52 ± 1.7%
PC3 cells; either 25 μM or 50 μM Risperidone alone (Table 4 experiment)
  growth inhibition of PC3 cells: 20-30%
A549 cells; A549, 50 μM Risperidone and/or 50 μM CLA, 1 μM Testosterone (T) where added, 96 hours
  Percentage of Lysed Cells: 38 ± 1.9%
A549 cells; Homo sapiens, A549, read-out: growth inhibition of A549 cells
  inhibition at 50 µM: > 60%
MCF7 cells; [1]
  Percentage of Lysed Cells: 35 ± 2.4%
MCF7 cells; Homo sapiens, 50 μM
  inhibition at 50 µM: ~65%
OVCAR-3 cells; [1]
  Percentage of Lysed Cells: 64 ± 0.4%
OVCAR-3 cells; Homo sapiens, 50 μM
  inhibition at 50 µM: ~35%
VERO cells; 50 μM
  effect on growth of cells from the non-cancerous cell line VERO: neither Risperidone nor CLA had any measurable effect
VERO cells; VERO, 50 μM Risperidone and/or 50 μM CLA, 1 μM Testosterone (T) where added, 96 hours
  Percentage of Lysed Cells: 94 ± 1.7%
BxPC-3 cells
  inhibition at 50 µM: ~60%
PC-3M-luc cells; by Day 40
  body weight throughout the study: maintained a constant weight
PC-3M-luc cells; by day 34
  animal loss: about 10%
PC-3M-luc cells; calculated on Day 34, dosing per Table 7
  Tumor Growth Inhibition: 16%
PC-3M-luc cells; day 40, dosing per Table 7
  Animal Survival (overall survivorship): 33%
